Literature values in US20240200062A1, “METHODS OF TREATING DUCHENNE MUSCULAR DYSTROPHY USING PEPTIDE-OLIGONUCLEOTIDE CONJUGATES” (PepGen Inc., priority 2021, published 2024).

System: dystrophin
Conditions: in vivo; cited from earlier work

eteplirsen
levels of dystrophin restoration: approximately 1 % of normal dystrophin levels
